Paper PMC3205184, “Competitive binding at a nicotinic receptor transmembrane site of two α7-selective positive allosteric modulators with differing effects on agonist-evoked desensitization” (Neuropharmacology, 2011)

Target: T1, α7 nicotinic acetylcholine receptor (α7 nAChR) (Rattus norvegicus, UniProt Q05941)
T1 construct: gene Chrna7
Test: two-electrode voltage clamp in Xenopus oocytes; potentiation of EC20 acetylcholine responses, with site-directed mutants
Format: cell-based

T1 sequence (Q05941 23-502): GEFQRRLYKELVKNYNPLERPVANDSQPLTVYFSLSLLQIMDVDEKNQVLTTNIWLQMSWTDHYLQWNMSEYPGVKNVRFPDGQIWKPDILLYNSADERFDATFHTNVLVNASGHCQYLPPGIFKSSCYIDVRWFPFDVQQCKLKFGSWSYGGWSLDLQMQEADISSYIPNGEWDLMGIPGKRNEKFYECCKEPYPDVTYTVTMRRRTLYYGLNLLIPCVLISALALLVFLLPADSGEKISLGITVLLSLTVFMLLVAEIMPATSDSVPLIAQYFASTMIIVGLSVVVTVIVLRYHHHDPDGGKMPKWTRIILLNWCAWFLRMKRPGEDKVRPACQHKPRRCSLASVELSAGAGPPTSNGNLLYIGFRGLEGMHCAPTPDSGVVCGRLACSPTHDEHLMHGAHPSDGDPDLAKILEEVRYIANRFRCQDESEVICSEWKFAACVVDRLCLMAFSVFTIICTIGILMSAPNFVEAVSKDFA

For `O=C(Nc1cc(Cl)ccc1O)Nc1cc(C(F)(F)F)ccc1Cl` [NS1738], the EC50 was 6.7 ± 1.8 µM.
